# Results reported in ChEMBL document CHEMBL3880421, “Indazole compounds and pharmaceutical compositions for inhibiting protein kinases, and methods for their use” (2003).
# Experiment: Antiproliferative activity against VEGF-stimulated HUVEC cells assessed as reduction in cell viability at 0.5 nM preincubated for 1 hr followed by addition of VEGF measured after 72 hrs by MTT assay
# Assay type: functional
# Conditions: Homo sapiens
row,Compound,inhibition at 0.0005 µM
1,C#CC(NC(=O)c1ccccc1Sc1ccc2c(/C=C/c3ccccn3)n[nH]c2c1)C1CCCCC1 (stereo not drawn),3%
2,Cc1cc(C)cc(NC(=O)c2ccccc2Sc2ccc3c(/C=C/c4ccccn4)n[nH]c3c2)c1,-4%
3,O=C(N[C@H]1CCc2ccccc21)c1ccccc1Sc1ccc2c(/C=C/c3ccccn3)n[nH]c2c1,8 to 15%
4,O=C(Nc1cc(Cl)ccc1O)c1ccccc1Sc1ccc2c(/C=C/c3ccccn3)n[nH]c2c1,-22%
5,Cc1ccccc1C(=O)NNC(=O)c1ccccc1Nc1ccc2c(/C=C/c3ccccn3)n[nH]c2c1,86%
6,Cc1nc(O)cc(NC(=O)c2ccccc2Sc2ccc3c(/C=C/c4ccccn4)n[nH]c3c2)n1,3%
7,O=C(Nc1cncc(Cl)n1)c1ccccc1Sc1ccc2c(/C=C/c3ccccn3)n[nH]c2c1,17%
8,O=C(Nc1cccc2c1CCCC2)c1ccccc1Sc1ccc2c(/C=C/c3ccccn3)n[nH]c2c1,-17%
9,CC(C)(C)c1cccc(NC(=O)c2ccccc2Sc2ccc3c(/C=C/c4ccccn4)n[nH]c3c2)c1,-5%
10,O=C(NC[C@H]1CCCO1)c1ccccc1Sc1ccc2c(/C=C/c3ccccn3)n[nH]c2c1,-11%
11,Cc1cc(F)ccc1NC(=O)c1ccccc1Sc1ccc2c(/C=C/c3ccccn3)n[nH]c2c1,-22%
12,O=C(Nc1cc(F)c(F)c(F)c1)c1ccccc1Sc1ccc2c(/C=C/c3ccccn3)n[nH]c2c1,0%
13,O=C(N[n+]1ccccc1)c1ccccc1Nc1ccc2c(/C=C/c3ccccn3)n[nH]c2c1,48%
14,Cc1ccc(F)cc1NC(=O)c1ccccc1Sc1ccc2c(/C=C/c3ccccn3)n[nH]c2c1,12%
15,Cc1cc(C)c(O)c(NC(=O)c2ccccc2Sc2ccc3c(/C=C/c4ccccn4)n[nH]c3c2)c1,-5%
16,CCOC(=O)c1c[nH]nc1NC(=O)c1ccccc1Sc1ccc2c(/C=C/c3ccccn3)n[nH]c2c1,-11%
17,O=C(N[C@@H](CO)Cc1ccccc1)c1ccccc1Sc1ccc2c(/C=C/c3ccccn3)n[nH]c2c1,-3%
18,Cc1cc(NC(=O)c2ccccc2Sc2ccc3c(/C=C/c4ccccn4)n[nH]c3c2)ccc1C(C)C,6%
19,CCCCc1ccc(NC(=O)c2ccccc2Sc2ccc3c(/C=C/c4ccccn4)n[nH]c3c2)cc1,-22%
20,O=C(NNC(=O)c1ccccc1Nc1ccc2c(/C=C/c3ccccn3)n[nH]c2c1)c1ccccn1,69%
21,COc1ccc(CNC(=O)c2ccccc2Nc2ccc3c(/C=C/c4ccccn4)n[nH]c3c2)cc1,63%

row,Compound,inhibition at 0.0005 µM
1,C[C@@H](NC(=O)c1ccccc1Sc1ccc2c(/C=C/c3ccccn3)n[nH]c2c1)c1ccccc1,9%
2,CCOC(=O)c1cccc(NC(=O)c2ccccc2Sc2ccc3c(/C=C/c4ccccn4)n[nH]c3c2)c1,7%
3,O=C(NCc1cc(F)cc(F)c1F)c1ccccc1Sc1ccc2c(/C=C/c3ccccn3)n[nH]c2c1,24%
4,CCCOCCNC(=O)c1ccccc1Nc1ccc2c(/C=C/c3ccccn3)n[nH]c2c1,28%
5,CC(C)(C)CNC(=O)c1ccccc1Nc1ccc2c(/C=C/c3ccccn3)n[nH]c2c1,5 to 19%
6,Cc1cc(C)c(NC(=O)c2ccccc2Sc2ccc3c(/C=C/c4ccccn4)n[nH]c3c2)c(C)c1,-10%
7,C[C@@H](NC(=O)c1ccccc1Sc1ccc2c(/C=C/c3ccccn3)n[nH]c2c1)c1cccc2ccccc12,1%
8,O=C(Nc1ccc(O)c2ccccc12)c1ccccc1Sc1ccc2c(/C=C/c3ccccn3)n[nH]c2c1,4%
9,Cc1cc(C)c(NC(=O)c2ccccc2Sc2ccc3c(/C=C/c4ccccn4)n[nH]c3c2)c(Cl)c1,-26%
10,COc1ccc(C(N)=O)cc1NC(=O)c1ccccc1Sc1ccc2c(/C=C/c3ccccn3)n[nH]c2c1,5%
11,CCC(NC(=O)c1ccccc1Nc1ccc2c(/C=C/c3ccccn3)n[nH]c2c1)c1ccccc1 (stereo not drawn),45%
12,C[C@@H](O)CNC(=O)c1ccccc1Sc1ccc2c(/C=C/c3ccccn3)n[nH]c2c1,22%
13,C[C@@H](CNC(=O)c1ccccc1Sc1ccc2c(/C=C/c3ccccn3)n[nH]c2c1)c1ccccc1,3%
14,O=C(NCc1ccco1)c1ccccc1Nc1ccc2c(/C=C/c3ccccn3)n[nH]c2c1,70%
15,O=C(NCc1ccccc1)c1ccccc1Nc1ccc2c(/C=C/c3ccccn3)n[nH]c2c1,70%
16,CC(=O)Nc1cccc(NC(=O)c2ccccc2Sc2ccc3c(/C=C/c4ccccn4)n[nH]c3c2)c1,-29%
17,O=C(NC[C@@H](O)c1ccccc1)c1ccccc1Sc1ccc2c(/C=C/c3ccccn3)n[nH]c2c1,2%
18,O=C(Nc1c(F)cccc1Cl)c1ccccc1Sc1ccc2c(/C=C/c3ccccn3)n[nH]c2c1,12%
19,CC(C)(C)OC(=O)C(C)(C)NC(=O)c1ccccc1Sc1ccc2c(/C=C/c3ccccn3)n[nH]c2c1,6%
20,O=C(Nc1nccnn1)c1ccccc1Sc1ccc2c(/C=C/c3ccccn3)n[nH]c2c1,3%
21,CC(C)ONC(=O)c1ccccc1Nc1ccc2c(/C=C/c3ccccn3)n[nH]c2c1,35%

row,Compound,inhibition at 0.0005 µM
1,Cc1c(O)cccc1NC(=O)c1ccccc1Sc1ccc2c(/C=C/c3ccccn3)n[nH]c2c1,1%
2,O=C(N[C@@H](CO)c1ccccc1)c1ccccc1Sc1ccc2c(/C=C/c3ccccn3)n[nH]c2c1,-17%
3,COc1sc(NC(=O)c2ccccc2Sc2ccc3c(/C=C/c4ccccn4)n[nH]c3c2)nc1C,-2%
4,CC(C)(Cc1ccc(F)cc1)NC(=O)c1ccccc1Sc1ccc2c(/C=C/c3ccccn3)n[nH]c2c1,-7%
5,CC(C)(NC(=O)c1ccccc1Sc1ccc2c(/C=C/c3ccccn3)n[nH]c2c1)c1ccccc1,-25%
6,Cc1ccc(NC(=O)c2ccccc2Sc2ccc3c(/C=C/c4ccccn4)n[nH]c3c2)cc1Cl,-11%
7,CCCCC(NC(=O)c1ccccc1Sc1ccc2c(/C=C/c3ccccn3)n[nH]c2c1)C(=O)NO (stereo not drawn),0%
8,O=C(NCc1ccc2c(c1)OCC2)c1ccccc1Sc1ccc2c(/C=C/c3ccccn3)n[nH]c2c1,14%
9,O=C(Nc1ccc2ncsc2c1)c1ccccc1Sc1ccc2c(/C=C/c3ccccn3)n[nH]c2c1,-20%
10,CCC(C)(C)NC(=O)c1ccccc1Sc1ccc2c(/C=C/c3ccccn3)n[nH]c2c1,-29%
11,Cn1c(NC(=O)c2ccccc2Sc2ccc3c(/C=C/c4ccccn4)n[nH]c3c2)nc2ccccc21,-21%
12,CC(C)(C)CC(C)(C)NC(=O)c1ccccc1Sc1ccc2c(/C=C/c3ccccn3)n[nH]c2c1,0%
13,O=C(N[C@H](CO)[C@H](O)c1ccccc1)c1ccccc1Sc1ccc2c(/C=C/c3ccccn3)n[nH]c2c1,-1%
14,O=C(Nc1cccc(-c2nnco2)c1)c1ccccc1Sc1ccc2c(/C=C/c3ccccn3)n[nH]c2c1,-23%
15,Cc1cccc(NC(=O)c2ccccc2Sc2ccc3c(/C=C/c4ccccn4)n[nH]c3c2)c1,3%
16,Cc1cccc(CNC(=O)c2ccccc2Nc2ccc3c(/C=C/c4ccccn4)n[nH]c3c2)c1,19%
17,O=C(NCCCc1ccccc1)c1ccccc1Nc1ccc2c(/C=C/c3ccccn3)n[nH]c2c1,50%
18,Cc1ccc(Cl)cc1NC(=O)c1ccccc1Sc1ccc2c(/C=C/c3ccccn3)n[nH]c2c1,22%
19,Cc1ccc(C(N)=O)cc1NC(=O)c1ccccc1Sc1ccc2c(/C=C/c3ccccn3)n[nH]c2c1,15%
20,CC(O)c1cccc(NC(=O)c2ccccc2Sc2ccc3c(/C=C/c4ccccn4)n[nH]c3c2)c1 (stereo not drawn),-32%
21,C#CCNC(=O)c1ccccc1Nc1ccc2c(/C=C/c3ccccn3)n[nH]c2c1,95%

row,Compound,inhibition at 0.0005 µM
1,C[C@H](NC(=O)c1ccccc1Sc1ccc2c(/C=C/c3ccccn3)n[nH]c2c1)C1CCCCC1,-12%
2,CCCCCNC(=O)c1ccccc1Nc1ccc2c(/C=C/c3ccccn3)n[nH]c2c1,49%
3,CCc1cccc(C)c1NC(=O)c1ccccc1Sc1ccc2c(/C=C/c3ccccn3)n[nH]c2c1,-4%
4,CCCCNC(=O)c1ccccc1Nc1ccc2c(/C=C/c3ccccn3)n[nH]c2c1,52%
5,C[C@H](NC(=O)c1ccccc1Sc1ccc2c(/C=C/c3ccccn3)n[nH]c2c1)[C@H](O)c1ccccc1,9%
6,C[C@@H](NC(=O)c1ccccc1Sc1ccc2c(/C=C/c3ccccn3)n[nH]c2c1)c1ccc2ccccc2c1,1%
7,O=C(NCc1ccc2c(c1)OCO2)c1ccccc1Nc1ccc2c(/C=C/c3ccccn3)n[nH]c2c1,46%
8,CCc1cccc(NC(=O)c2ccccc2Sc2ccc3c(/C=C/c4ccccn4)n[nH]c3c2)n1,-12%
9,O=C(NC[C@@H]1CCCO1)c1ccccc1Sc1ccc2c(/C=C/c3ccccn3)n[nH]c2c1,-8%
10,O=C(Nc1cc(F)cc(F)c1)c1ccccc1Sc1ccc2c(/C=C/c3ccccn3)n[nH]c2c1,-36%
11,C[N+](C)(C)NC(=O)c1ccccc1Nc1ccc2c(/C=C/c3ccccn3)n[nH]c2c1,8%
12,O=C(NNC(=O)c1ccccc1Nc1ccc2c(/C=C/c3ccccn3)n[nH]c2c1)c1cccnc1,31%
13,C[C@H](NC(=O)c1ccccc1Sc1ccc2c(/C=C/c3ccccn3)n[nH]c2c1)c1ccccc1,-3%
14,CCCc1ccc(NC(=O)c2ccccc2Sc2ccc3c(/C=C/c4ccccn4)n[nH]c3c2)cc1,22%
15,O=C(N[C@@H]1C[C@H]1c1ccccc1)c1ccccc1Sc1ccc2c(/C=C/c3ccccn3)n[nH]c2c1 (racemic),10%
16,O=C(NCCc1cccs1)c1ccccc1Sc1ccc2c(/C=C/c3ccccn3)n[nH]c2c1,36%
17,CNc1ccccc1NC(=O)c1ccccc1Sc1ccc2c(/C=C/c3ccccn3)n[nH]c2c1,-2%
18,O=C(Nc1c(Cl)cccc1Cl)c1ccccc1Sc1ccc2c(/C=C/c3ccccn3)n[nH]c2c1,-45%
19,O=C(N[C@H](CO)Cc1ccccc1)c1ccccc1Sc1ccc2c(/C=C/c3ccccn3)n[nH]c2c1,1%
20,C[C@@H](NC(=O)c1ccccc1Sc1ccc2c(/C=C/c3ccccn3)n[nH]c2c1)C1CCCCC1,9%
